Data taken from ChEMBL document CHEMBL1141668, “Synthesis and biological activity of imidazopyridine anticoccidial agents: Part II” (Eur J Med Chem, 2008).

How the values were obtained:
Eimeria acervulina [1] = assay: Anticoccidial activity against Eimeria acervulina in chickens assessed as reduction of oocysts at 12.5 ppm measured after 8 days by ExMAC assay relative to untreated control; assay type: functional; parameters: scale not given: the % may be the effect or the level left
Eimeria tenella [2] = assay: Anticoccidial activity against Eimeria tenella in chickens assessed as reduction of oocysts at 12.5 ppm measured after 8 days by ExMAC assay relative to untreated control; assay type: functional; parameters: scale not given: the % may be the effect or the level left
[3] = molecular target: cGMP-dependent protein kinase (Eimeria tenella, UniProt Q8MMZ8); assay: Inhibition of Eimeria tenella cGMP-dependent protein kinase
Eimeria mitis [4] = assay: Anticoccidial activity against Eimeria mitis in chickens assessed as reduction of oocysts at 12.5 ppm measured after 8 days by ExMAC assay relative to untreated control; assay type: functional; parameters: scale not given: the % may be the effect or the level left
Eimeria tenella [5] = assay: Anticoccidial activity against Eimeria tenella in chickens assessed as reduction of oocysts at 25 ppm measured after 8 days by ExMAC assay relative to untreated control; assay type: functional; parameters: scale not given: the % may be the effect or the level left
Eimeria maxima [6] = assay: Anticoccidial activity against Eimeria maxima in chickens assessed as reduction of oocysts at 25 ppm measured after 8 days by ExMAC assay relative to untreated control; assay type: functional; parameters: scale not given: the % may be the effect or the level left
Eimeria maxima [7] = assay: Anticoccidial activity against Eimeria maxima in chickens assessed as reduction of oocysts at 6.25 ppm measured after 8 days by ExMAC assay relative to untreated control; assay type: functional; parameters: scale not given: the % may be the effect or the level left
Eimeria mitis [8] = assay: Anticoccidial activity against Eimeria mitis in chickens assessed as reduction of oocysts at 25 ppm measured after 8 days by ExMAC assay relative to untreated control; assay type: functional; parameters: scale not given: the % may be the effect or the level left
Eimeria tenella [9] = assay: Anticoccidial activity against Eimeria tenella in chickens assessed as reduction of oocysts at 6.25 ppm measured after 8 days by ExMAC assay relative to untreated control; assay type: functional; parameters: scale not given: the % may be the effect or the level left
Eimeria acervulina [10] = assay: Anticoccidial activity against Eimeria acervulina in chickens assessed as reduction of oocysts at 6.25 ppm measured after 8 days by ExMAC assay relative to untreated control; assay type: functional; parameters: scale not given: the % may be the effect or the level left
Eimeria mitis [11] = assay: Anticoccidial activity against Eimeria mitis in chickens assessed as reduction of oocysts at 6.25 ppm measured after 8 days by ExMAC assay relative to untreated control; assay type: functional; parameters: scale not given: the % may be the effect or the level left
Eimeria maxima [12] = assay: Anticoccidial activity against Eimeria maxima in chickens assessed as reduction of oocysts at 12.5 ppm measured after 8 days by ExMAC assay relative to untreated control; assay type: functional; parameters: scale not given: the % may be the effect or the level left
Eimeria acervulina [13] = assay: Anticoccidial activity against Eimeria acervulina in chickens assessed as reduction of oocysts at 25 ppm measured after 8 days by ExMAC assay relative to untreated control; assay type: functional; parameters: scale not given: the % may be the effect or the level left

cGMP-dependent protein kinase, sequence (Q8MMZ8 whole entry): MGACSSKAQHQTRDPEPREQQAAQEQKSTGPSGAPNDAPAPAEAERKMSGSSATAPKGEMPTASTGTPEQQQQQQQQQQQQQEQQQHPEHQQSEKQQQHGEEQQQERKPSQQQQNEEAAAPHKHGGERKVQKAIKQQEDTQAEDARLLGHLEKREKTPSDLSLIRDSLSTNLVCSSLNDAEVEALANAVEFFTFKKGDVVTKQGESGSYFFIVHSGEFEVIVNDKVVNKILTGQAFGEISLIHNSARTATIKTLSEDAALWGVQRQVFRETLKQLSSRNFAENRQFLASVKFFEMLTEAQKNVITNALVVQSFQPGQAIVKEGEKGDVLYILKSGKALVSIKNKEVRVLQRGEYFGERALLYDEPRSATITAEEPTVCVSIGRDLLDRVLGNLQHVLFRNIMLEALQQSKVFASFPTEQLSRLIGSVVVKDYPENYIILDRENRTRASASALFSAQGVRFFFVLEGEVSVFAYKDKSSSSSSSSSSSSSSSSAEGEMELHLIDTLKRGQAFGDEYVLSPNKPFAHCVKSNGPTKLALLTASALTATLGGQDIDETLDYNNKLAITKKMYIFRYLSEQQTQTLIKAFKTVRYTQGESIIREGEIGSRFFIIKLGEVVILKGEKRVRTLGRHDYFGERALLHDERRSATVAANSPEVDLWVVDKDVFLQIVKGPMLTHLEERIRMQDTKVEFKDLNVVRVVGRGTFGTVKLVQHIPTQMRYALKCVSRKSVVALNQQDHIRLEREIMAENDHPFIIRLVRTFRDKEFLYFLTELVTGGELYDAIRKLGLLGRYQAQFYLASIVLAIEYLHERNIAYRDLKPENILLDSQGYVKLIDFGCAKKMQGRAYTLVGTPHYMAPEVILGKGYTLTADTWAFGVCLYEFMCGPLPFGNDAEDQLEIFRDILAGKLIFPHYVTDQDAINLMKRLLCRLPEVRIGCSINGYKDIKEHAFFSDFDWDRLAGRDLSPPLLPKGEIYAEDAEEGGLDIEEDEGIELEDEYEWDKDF

Structure (SMILES)	Activity (Eimeria acervulina [1]) [%]	Activity (Eimeria tenella [2]) [%]	IC50 [3] [nM]	Activity (Eimeria mitis [4]) [%]	Activity (Eimeria tenella [5]) [%]	Activity (Eimeria maxima [6]) [%]	Activity (Eimeria maxima [7]) [%]	Activity (Eimeria mitis [8]) [%]	Activity (Eimeria tenella [9]) [%]	Activity (Eimeria acervulina [10]) [%]	Activity (Eimeria mitis [11]) [%]	Activity (Eimeria maxima [12]) [%]	Activity (Eimeria acervulina [13]) [%]
CCC(C)CN1CCC(c2ccn3c(-c4ccnc(N)n4)c(-c4ccc(F)cc4)nc3c2)CC1 (stereo not given)	80	80	0.13	<50									
CN(C)c1ccn2c(-c3ccnc(N)n3)c(-c3ccc(F)cc3)nc2c1	<50	50	3	<50	80	80	<50	<50	<50	<50	<50	80	80
CN(C)CCCc1ccn2c(-c3ccnc(N)n3)c(-c3ccc(F)cc3)nc2c1	80	80	0.27	<50	80	100	<50	80	<50	<50	<50	<50	80
CN1CCN(c2ccn3c(-c4ccnc(N)n4)c(-c4ccc(F)cc4)nc3c2)CC1	<50	80	0.23	50	80	100	<50	80	<50	<50	50	<50	<50
CCN(CC)Cc1ccn2c(-c3ccnc(N)n3)c(-c3ccc(F)cc3)nc2c1	50	80	0.17	<50	80	80	<50	80	<50	<50	50	80	50
CN1CCN(Cc2ccn3c(-c4ccnc(N)n4)c(-c4ccc(F)cc4)nc3c2)CC1	<50	<50	2.2	<50	80	80		80				<50	<50
CN(C)CC(C)(C)c1ccn2c(-c3ccnc(N)n3)c(-c3ccc(F)cc3)nc2c1	80	80	0.2	<50	100	<50	<50	80	<50	<50	<50	<50	80
Nc1nccc(-c2c(-c3ccc(F)cc3)nc3cc(C4CCN(CCc5ccccc5)CC4)ccn23)n1	<50	<50	0.07	<50									
Nc1nccc(-c2c(-c3ccc(F)cc3)nc3cc(C4CCN(Cc5ccccc5)CC4)ccn23)n1	80	80	0.11	<50	80	100	80	<50	<50	<50	<50	80	<50
CN(C)Cc1ccn2c(-c3ccnc(N)n3)c(-c3ccc(F)cc3)nc2c1	80	80		80	80	80	<50	80	80	80	<50	80	80
CCC(CN(C)C)c1ccn2c(-c3ccnc(N)n3)c(-c3ccc(F)cc3)nc2c1 (stereo not given)			0.4		100	100		<50					<50
Nc1nccc(-c2c(-c3ccc(F)cc3)nc3cc(C4CCN(CCO)CC4)ccn23)n1	50	99	0.044	80	99	50	<50	<50	99	<50	<50	80	99
CCCCCCN1CCC(c2ccn3c(-c4ccnc(N)n4)c(-c4ccc(F)cc4)nc3c2)CC1	<50	50	0.13	<50									
CNC(=O)c1ccn2c(-c3ccnc(N)n3)c(-c3ccc(F)cc3)nc2c1			3.1		<50	50		<50					<50
C#CCN(C)Cc1ccn2c(-c3ccnc(N)n3)c(-c3ccc(F)cc3)nc2c1	<50	<50	0.65	<50								<50	
CCCC(C)CN1CCC(c2ccn3c(-c4ccnc(N)n4)c(-c4ccc(F)cc4)nc3c2)CC1 (stereo not given)	<50	80	0.12	<50									
CN(CC#N)Cc1ccn2c(-c3ccnc(N)n3)c(-c3ccc(F)cc3)nc2c1			1.33		80	<50		<50					80
COCCN(C)Cc1ccn2c(-c3ccnc(N)n3)c(-c3ccc(F)cc3)nc2c1	<50	<50	0.26	<50								<50	
Nc1nccc(-c2c(-c3ccc(F)cc3)nc3cc(C4CCN(CCCO)CC4)ccn23)n1	50	100	0.065	<50	100	<50	<50	<50	<50	50	<50	<50	80
CN(CCO)Cc1ccn2c(-c3ccnc(N)n3)c(-c3ccc(F)cc3)nc2c1	<50	<50	0.4	<50								<50	
CN(C)CC(F)c1ccn2c(-c3ccnc(N)n3)c(-c3ccc(F)cc3)nc2c1 (stereo not given)	80	80	0.59	50	100	100	100	100	80	<50	<50	100	100
CN(C)C(=N)c1ccn2c(-c3ccnc(N)n3)c(-c3ccc(F)cc3)nc2c1			2.5		<50	<50		<50					50
Nc1nccc(-c2c(-c3ccc(F)cc3)nc3cc(C4CCN(CC5CC5)CC4)ccn23)n1	80	100	0.095	80	100	80	80	80	80	80	80	80	100
CCCC(c1ccn2c(-c3ccnc(N)n3)c(-c3ccc(F)cc3)nc2c1)N(C)C (stereo not given)	80	<50	0.065	<50	100	100	100	100	<50	80	<50	<50	100
CC(C)(C)CCN1CCC(c2ccn3c(-c4ccnc(N)n4)c(-c4ccc(F)cc4)nc3c2)CC1	<50	80	0.11	<50									
CC(C)(CN)c1ccn2c(-c3ccnc(N)n3)c(-c3ccc(F)cc3)nc2c1			0.26		50	<50		50					<50
Nc1nccc(-c2c(-c3ccc(F)cc3)nc3cc(C4CCNCC4)ccn23)n1			0.046		<50	100		<50					<50
CC(C)(C)NCc1ccn2c(-c3ccnc(N)n3)c(-c3ccc(F)cc3)nc2c1			0.35										
